# From paper PMC7613620, “Reaction hijacking of tyrosine tRNA synthetase as a whole-of-life-cycle antimalarial strategy” (Science (New York, N.Y.), 2022)
# Like-named read-outs stand apart in the source and are kept apart here.
# Key:
# [1] = target: T1, HsYRS (Homo sapiens, UniProt P54577); assay: Differential scanning fluorimetry, HsYRS; type: binding; settings: in the presence of ML901 plus substrates
# T1 construct: made in house; host or cells: E. coli BL21(DE3), pET-11a
# T1 sequence (P54577 1-364): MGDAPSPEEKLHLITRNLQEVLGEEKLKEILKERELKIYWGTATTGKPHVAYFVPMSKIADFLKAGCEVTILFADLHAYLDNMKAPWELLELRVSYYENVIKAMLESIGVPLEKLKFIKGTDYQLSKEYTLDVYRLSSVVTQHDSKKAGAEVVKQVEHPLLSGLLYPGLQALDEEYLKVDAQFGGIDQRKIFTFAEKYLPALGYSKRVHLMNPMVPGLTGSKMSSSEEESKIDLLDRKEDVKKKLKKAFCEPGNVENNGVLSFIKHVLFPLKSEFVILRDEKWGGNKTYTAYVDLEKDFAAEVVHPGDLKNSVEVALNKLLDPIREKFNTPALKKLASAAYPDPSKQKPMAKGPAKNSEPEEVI
# Procedure: This DNA template and its complementary strand were custom-synthesized by Sigma-
# 810 (HiScribe™ T7 Quick High Yield RNA Synthesis Kit, NEB). On the following day, the reaction mixture
# 820 was sealed and analysed using StepOnePlus Real-Time PCR system (Applied Biosystems). The samples
# The thermal unfolding curve was plotted
# The melting temperature (Tm), defined as the
# Reactions were conducted in 50 mM Tris-
# Reactions were conducted in 50 mM Tris-HCL, pH 7.6,
# [2] = test system: P. falciparum female gametes; assay: Dual gamete formation assay (female); type: cell-based; settings: Plasmodium falciparum
# Procedure: 604 Activity against transmissible stages of P. falciparum
# 605 Activity against male gametes was assessed using the dual gamete formation assay (PfDGFA)(32).
# 606 Compounds were incubated with mature stage V gametocytes ([…], kind gift from Professor Chris Janse
# 607 at Leiden University Medical Center (LUMC), the Netherlands) for 48 hours in 384 well plates before
# 608 gamete formation was triggered by a drop in temperature and addition of xanthurenic acid. Male gamete
# 609 exflagellation was recorded and quantified by automated microscopy. The ability of female gametes to
# 611 Multiple data sets using different gametocyte cultures were collected on each of two separate days.
# 613 Activity against exoerythrocytic stages
# 614 Primary human hepatocytes (H1500.H15B+ Lot No. HC10-10 Cryopreserved human hepatocytes)
# 615 were cultured for 2 days and then overlaid with P. falciparum NF54 sporozoites and compounds.
# 616 Supernatant was refreshed daily with fresh compounds.
# [3] = test system: PfYRS knockdown line; assay: Growth inhibition of aptamer-regulatable PfYRS knockdown line (luciferase, 72 h); type: cell-based, Plasmodium falciparum; settings: for IC50: Plasmodium falciparum
# Source text: 674 Generation and analysis of PfYRS knock-down transfectants
# 675 A conditional regulatable line for the cytosolic PfYRS (PF3D7_0807900) was generated by integrating the
# 676 gene regulatable system, TetR-DOZI-RNA aptamer module at the 3'-end of the target gene, in P. falciparum
# 677 parasites using CRISPR-Cas9 and homology-driven repair (55, 56). A line harbourbing an aptamer-
# 678 regulatable fluorescent protein (eYFP) integrated in the cg6 locus is used as the control (55). Transfection
# 679 into parasites was carried out by preloading RBCs with the donor vector as described previously (57).
# 680 Briefly, 50 μg of purified plasmid DNA was mixed with human RBCs and subjected to 8 square wave
# 681 electroporation pulses of 365 V for 1 ms each, separated by 0.1 s in a 0.2 cm cuvette. The plasmid DNA
# 682 preloaded cells were inoculated with NF54 expressing Cas9 and T7 RNA polymerase. […]
# 696 Stock solutions of ML901, DHA or borrelidin (Cayman Chemicals) were dispensed into 96-well U-bottom
# 697 BD Falcon™ plates and serially diluted in complete medium to yield final concentrations ranging from 20-
# 698 0.08 nM. Synchronous ring-stage YRScyt conditional knockdown line and the aptamer-regulatable control
# 699 line in varying aTc concentrations (high = 50 or 500 nM, low = 1 nM, and no aTc) were distributed into
# 700 the drug plate. Lowest drug treatment and a lethal dose of chloroquine (200 nM) served as reference
# 701 controls. Growth inhibition was analysed after 72 h using the Renilla-Glo(R) Luciferase Assay System (ref
# 702 no E2750 Promega) and the GloMax® Discover Multimode Microplate Reader (Promega), and IC50 values
# 703 were obtained from corrected dose-response curves using GraphPad Prism (version 8; GraphPad Software). […]
# 706 CRISPR/Cas9 was used to generate parasites encoding the S234C mutation in exon 2 of PfYRS, as shown
# 707 in Suppl Figure 6. Two guide RNAs (gRNA1: […] and gRNA2:
# 708 […]) were selected using Benchling (benchling.com), and cloned into the
# 709 pDC2-coCas9-gRNA plasmid essentially as described previously (58). A donor template of 645 bp,
# 710 encompassing the majority of the 708 bp exon 2, was synthesized (ThermoFisher) and cloned into the
# 711 AatII/EcoRI sites of both the pDC2-coCas9-gRNA1 and pDC2-coCas9-gRNA2 plasmids. In addition to
# 712 the TCC>TGC (S234C) mutation, additional silent shield mutations were introduced to prevent gRNA-
# 713 Cas9 complex binding, as shown in Suppl Figure 6. Ring-stage P. falciparum parasites (Dd2 strain) at 10%
# 714 parasitemia (150 µL of packed cells) were transfected with 50 µg of plasmid DNA using a BioRad Gene
# 715 Pulser II (310 V, 950 µF), and selected with 5 nM WR99210 (Jacobus Pharmaceuticals) for 8 days, after
# 716 which culture was continued without drug pressure until transfectants were obtained. Clones of the
# 717 PfYRSS234C mutant parasites were isolated by limiting dilution and verified by Sanger sequencing.
# 719 Protein translation assay
# 720 P. falciparum Cam 3.II_Rev (25) schizont- (43-48 h p.i.) infected RBCs were pre-incubated with inhibitor
# Using a modification of a published procedure (14), the
# 722 cells were labelled with O-propargyl-puromycin (OPP; 4 µM) for 1 h, washed 3x (PBS +3% serum) and
# 723 then fixed for 10 minutes (4% formaldehyde/0.02% glutaraldehyde in PBS). The click reaction was
# 724 performed for 1 h in the presence of CuSO4 (0.1 mM), THPTA (0.5 mM) and sodium ascorbate (5 mM) to
# 725 bring about azide-alkyne cycloaddition to Alexa Fluor 488 azide (0.1 µM). Flow cytometry was performed
# 726 using the FITC and Cy™5.5 channels to detect the Alexa Fluor 488 and PI, respectively.
# 729 Cam 3.II_Rev (25) trophozoite-infected RBCs (25-30 h p.i.) were incubated with inhibitor for 3 h at 10%
# 730 hematocrit and 5% parasitemia. The RBC pellet was washed 3 x in PBS + cOmplete. Cells were centrifuged
# 731 at 380 x g for 5 min and the pelleted cells lysed by resuspension in PBS + 0.05% saponin for 5 min on ice.
structure (smiles),measurement,setting,value
Nc1ncnc2c1c(OC(F)F)nn2[C@@H]1O[C@H](COS(N)(=O)=O)[C@@H](O)[C@H]1O [ML901],thermal stabilization of HsYRS,[1],not stabilized
same,IC50,[2]; 48 h incubation with stage V gametocytes,4700 ± 300 nM
same,inhibition at 25 µM,[2]; at 25 µM,81%
same,IC50,"[3]; as stated in main text, aTc condition not given, read-out: IC50 against the knockdown parasites",0.4 nM
same,IC50,"[3]; high aTc (50 nM), read-out: IC50 against PfYRS knockdown line",3.9 ± 0.9 nM
same,IC50,"[3]; low aTc (1 nm), read-out: IC50 against PfYRS knockdown line",0.5 ± 0.1 nM
same,IC50,"[3]; no aTc, read-out: IC50 against PfYRS knockdown line",0.3 ± 0.1 nM
same,"Fold change in IC50 (high aTc/ no aTc), PfYRS knockdown line",[3]; high aTc 50 nM,13
